pIC50: −log10 of the molar value. One block for each compound: values may come before it.
Tested on: 624824-186-R-J2-PDC multicell spheroids, viability
Assay: Anticancer human tumor 624824-186-R-J2-PDC patient-derived colon adenocarcinoma cell line growth inhibition [PI3K]
Conditions: for pIC50: curve of first compound; for viability, T/C: stronger effect = lower value
Method in brief: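 Targeted small molecules plus PI3K inhibitors, half-log dose series from Cmax (default top 10 microM), were applied to heterotypic spheroids of cancer cells with HUVEC and MSCs. Viability indicated growth inhibition.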

[1] = second compound 0.00316 µM, first compound 0.00316 µM
[2] = second compound 0.00316 µM, first compound 0.01 µM
[3] = second compound 0.00316 µM, first compound 0.0316 µM
[4] = second compound 0.00316 µM, first compound 0.1 µM
[5] = second compound 0.00316 µM, first compound 0.316 µM
[6] = second compound 0.00316 µM, first compound 1 µM
[7] = second compound 0.01 µM, first compound 0.00316 µM
[8] = second compound 0.01 µM, first compound 0.01 µM
[9] = second compound 0.01 µM, first compound 0.0316 µM
[10] = second compound 0.01 µM, first compound 0.1 µM
[11] = second compound 0.01 µM, first compound 0.316 µM
[12] = second compound 0.01 µM, first compound 1 µM
[13] = second compound 0.0316 µM, first compound 0.00316 µM
[14] = second compound 0.0316 µM, first compound 0.01 µM
[15] = second compound 0.0316 µM, first compound 0.0316 µM
[16] = second compound 0.0316 µM, first compound 0.1 µM
[17] = second compound 0.0316 µM, first compound 0.316 µM
[18] = second compound 0.0316 µM, first compound 1 µM
[19] = second compound 0.1 µM, first compound 0.00316 µM
[20] = second compound 0.1 µM, first compound 0.01 µM
[21] = second compound 0.1 µM, first compound 0.0316 µM
[22] = second compound 0.1 µM, first compound 0.1 µM
[23] = second compound 0.1 µM, first compound 0.316 µM
[24] = second compound 0.1 µM, first compound 1 µM
[25] = second compound 0.316 µM, first compound 0.00316 µM
[26] = second compound 0.316 µM, first compound 0.01 µM
[27] = second compound 0.316 µM, first compound 0.0316 µM
[28] = second compound 0.316 µM, first compound 0.1 µM
[29] = second compound 0.316 µM, first compound 0.316 µM
[30] = second compound 0.316 µM, first compound 1 µM
[31] = second compound 1 µM, first compound 0.00316 µM
[32] = second compound 1 µM, first compound 0.01 µM
[33] = second compound 1 µM, first compound 0.0316 µM
[34] = second compound 1 µM, first compound 0.1 µM
[35] = second compound 1 µM, first compound 0.316 µM
[36] = second compound 1 µM, first compound 1 µM
[37] = second compound 0.00316 µM, first compound 3.16 µM
[38] = second compound 0.00316 µM, first compound 10 µM
[39] = second compound 0.01 µM, first compound 3.16 µM
[40] = second compound 0.01 µM, first compound 10 µM
[41] = second compound 0.0316 µM, first compound 3.16 µM
[42] = second compound 0.0316 µM, first compound 10 µM
[43] = second compound 0.1 µM, first compound 3.16 µM
[44] = second compound 0.1 µM, first compound 10 µM
[45] = second compound 0.316 µM, first compound 3.16 µM
[46] = second compound 0.316 µM, first compound 10 µM
[47] = second compound 1 µM, first compound 3.16 µM
[48] = second compound 1 µM, first compound 10 µM
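Further: spheroids exposed to agents for 7 days before viability read.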
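Wherever viability, T/C is given: 100% = DMSO vehicle treated spheroids.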

pIC50 (second compound 0.00316 µM): < 6.00
pIC50 (second compound 0.01 µM): < 6.00
pIC50 (second compound 0.0316 µM): < 6.00
pIC50 (second compound 0.1 µM): < 6.00
pIC50 (second compound 0.316 µM): < 6.00
pIC50 (second compound 1 µM): < 6.00
SMILES: CCN1CCN(Cc2ccc(Nc3ncc(F)c(-c4cc(F)c5nc(C)n(C(C)C)c5c4)n3)nc2)CC1 + CC(Nc1ccc2c(c1)OCCn1cc(N3C(=O)OCC3C(F)F)nc1-2)C(N)=O
viability, T/C [1]: 92.9%
viability, T/C [2]: 87.8%
viability, T/C [3]: 80.5%
viability, T/C [4]: 105%
viability, T/C [5]: 91.5%
viability, T/C [6]: 118%
viability, T/C [7]: 97.7%
viability, T/C [8]: 98.2%
viability, T/C [9]: 114%
viability, T/C [10]: 89.2%
viability, T/C [11]: 92.1%
viability, T/C [12]: 106%
viability, T/C [13]: 77.1%
viability, T/C [14]: 86.4%
viability, T/C [15]: 83.5%
viability, T/C [16]: 76.3%
viability, T/C [17]: 97.8%
viability, T/C [18]: 105%
viability, T/C [19]: 93.4%
viability, T/C [20]: 77.6%
viability, T/C [21]: 86.4%
viability, T/C [22]: 77.3%
viability, T/C [23]: 89.4%
viability, T/C [24]: 119%
viability, T/C [25]: 102%
viability, T/C [26]: 89%
viability, T/C [27]: 87.2%
viability, T/C [28]: 92.4%
viability, T/C [29]: 90.1%
viability, T/C [30]: 105%
viability, T/C [31]: 85.6%
viability, T/C [32]: 83.7%
viability, T/C [33]: 90.9%
viability, T/C [34]: 85.8%
viability, T/C [35]: 87.2%
viability, T/C [36]: 96.3%

pIC50 (second compound 0.00316 µM): < 5.00
pIC50 (second compound 0.01 µM): < 5.00
pIC50 (second compound 0.0316 µM): < 5.00
pIC50 (second compound 0.1 µM): 5.99
pIC50 (second compound 0.316 µM): 6.30
pIC50 (second compound 1 µM): 6.29
SMILES: C[C@@H](NC(=O)c1ncnc(N)c1Cl)c1ncc(C(=O)Nc2cc(C(F)(F)F)c(Cl)cn2)s1 + COc1c(OCCCN2CCOCC2)ccc2c3n(c(=NC(=O)c4cnc(N)nc4)nc12)CCN3
viability, T/C [3]: 106%
viability, T/C [4]: 112%
viability, T/C [5]: 93.5%
viability, T/C [6]: 84.4%
viability, T/C [37]: 62.2%
viability, T/C [38]: 65.2%
viability, T/C [9]: 95.5%
viability, T/C [10]: 119%
viability, T/C [11]: 106%
viability, T/C [12]: 70.1%
viability, T/C [39]: 61.6%
viability, T/C [40]: 62.6%
viability, T/C [15]: 91.3%
viability, T/C [16]: 93%
viability, T/C [17]: 88.9%
viability, T/C [18]: 63.9%
viability, T/C [41]: 63.4%
viability, T/C [42]: 48%
viability, T/C [21]: 88.7%
viability, T/C [22]: 73.9%
viability, T/C [23]: 64.6%
viability, T/C [24]: 50.2%
viability, T/C [43]: 38.7%
viability, T/C [44]: 33.1%
viability, T/C [27]: 77.2%
viability, T/C [28]: 59.9%
viability, T/C [29]: 55.7%
viability, T/C [30]: 46.4%
viability, T/C [45]: 33.8%
viability, T/C [46]: 28.9%
viability, T/C [33]: 62.4%
viability, T/C [34]: 63.4%
viability, T/C [35]: 52.1%
viability, T/C [36]: 42.5%
viability, T/C [47]: 39.2%
viability, T/C [48]: 26.1%

pIC50 (second compound 0.00316 µM): < 7.00
pIC50 (second compound 0.01 µM): < 7.00
pIC50 (second compound 0.0316 µM): < 7.00
pIC50 (second compound 0.1 µM): < 7.00
pIC50 (second compound 0.316 µM): < 7.00
pIC50 (second compound 1 µM): < 7.00
SMILES: CC(C)n1nc(-c2ccc3oc(N)nc3c2)c2c(N)ncnc21 + CC(Nc1ccc2c(c1)OCCn1cc(N3C(=O)OCC3C(F)F)nc1-2)C(N)=O
viability, T/C (second compound 0.00316 µM, first compound 0.000316 µM): 74%
viability, T/C (second compound 0.00316 µM, first compound 0.001 µM): 86.9%
viability, T/C [1]: 95.5%
viability, T/C [2]: 92.1%
viability, T/C [3]: 89.2%
viability, T/C [4]: 87.5%
viability, T/C (second compound 0.01 µM, first compound 0.000316 µM): 106%
viability, T/C (second compound 0.01 µM, first compound 0.001 µM): 110%
viability, T/C [7]: 107%
viability, T/C [8]: 86.8%
viability, T/C [9]: 105%
viability, T/C [10]: 87.2%
viability, T/C (second compound 0.0316 µM, first compound 0.000316 µM): 83.5%
viability, T/C (second compound 0.0316 µM, first compound 0.001 µM): 81.4%
viability, T/C [13]: 67.6%
viability, T/C [14]: 78.1%
viability, T/C [15]: 91.9%
viability, T/C [16]: 90.4%
viability, T/C (second compound 0.1 µM, first compound 0.000316 µM): 88.3%
viability, T/C (second compound 0.1 µM, first compound 0.001 µM): 96.8%
viability, T/C [19]: 96.8%
viability, T/C [20]: 68.4%
viability, T/C [21]: 84.5%
viability, T/C [22]: 92.5%
viability, T/C (second compound 0.316 µM, first compound 0.000316 µM): 74.9%
viability, T/C (second compound 0.316 µM, first compound 0.001 µM): 96.1%
viability, T/C [25]: 78.7%
viability, T/C [26]: 72.3%
viability, T/C [27]: 82.2%
viability, T/C [28]: 75.4%
viability, T/C (second compound 1 µM, first compound 0.000316 µM): 97%
viability, T/C (second compound 1 µM, first compound 0.001 µM): 78.9%
viability, T/C [31]: 85%
viability, T/C [32]: 88.5%
viability, T/C [33]: 84.1%
viability, T/C [34]: 72%

pIC50 (second compound 0.00316 µM): < 5.00
pIC50 (second compound 0.01 µM): < 5.00
pIC50 (second compound 0.0316 µM): < 5.00
pIC50 (second compound 0.1 µM): < 5.00
pIC50 (second compound 0.316 µM): < 5.00
pIC50 (second compound 1 µM): 5.88
SMILES: Cn1nccc1Nc1nccc(-c2ccn(C(CO)c3ccc(Cl)c(F)c3)c(=O)c2)n1 (stereo not drawn) + CC(Nc1ccc2c(c1)OCCn1cc(N3C(=O)OCC3C(F)F)nc1-2)C(N)=O
viability, T/C [3]: 79.4%
viability, T/C [4]: 78.9%
viability, T/C [5]: 80.1%
viability, T/C [6]: 84.7%
viability, T/C [37]: 104%
viability, T/C [38]: 99.5%
viability, T/C [9]: 80.5%
viability, T/C [10]: 73.6%
viability, T/C [11]: 77.6%
viability, T/C [12]: 90.5%
viability, T/C [39]: 102%
viability, T/C [40]: 116%
viability, T/C [15]: 79%
viability, T/C [16]: 71.8%
viability, T/C [17]: 72%
viability, T/C [18]: 91.6%
viability, T/C [41]: 86.6%
viability, T/C [42]: 93.2%
viability, T/C [21]: 87.5%
viability, T/C [22]: 61.4%
viability, T/C [23]: 68.8%
viability, T/C [24]: 95.6%
viability, T/C [43]: 84.9%
viability, T/C [44]: 59%
viability, T/C [27]: 63%
viability, T/C [28]: 63.5%
viability, T/C [29]: 68.6%
viability, T/C [30]: 73.7%
viability, T/C [45]: 63.9%
viability, T/C [46]: 40.4%
viability, T/C [33]: 73.1%
viability, T/C [34]: 86.4%
viability, T/C [35]: 61%
viability, T/C [36]: 52.9%
viability, T/C [47]: 42.5%
viability, T/C [48]: 29%
